Test results: article PMC8811472, “Systematic In Vitro Evaluation of a Library of Approved and Pharmacologically Active Compounds for the Identification of Novel Candidate Drugs for KMT2A-Rearranged Leukemia” (Frontiers in Oncology, 2022)

Assays:
U937 cells = test: 72-hour resazurin-based cytotoxicity assay, U937; assay type: cell-based, human; conditions: Homo sapiens, U-937, U937, CALM-AF10, AML
Description: (§1) All cell lines used in this study were mycoplasma-free and have been authenticated using STR profiling. Cells were cultured as previously described ([7], [8]). Characteristics of the leukemia cell lines used in this study are described in Supplementary Table 1 . Peripheral blood mononuclear cells from healthy donors were purchased from Australian Red Cross.
(§2) The cytotoxicity of drugs was assessed through resazurin-based assays and the inhibitory concentration resulting in 50% reduction of cell survival relative to control (IC50) was calculated as previously described ([7]). In synergy studies, cells were exposed to a dilution series of compounds, as single agents or in combination, in resazurin-based assays (72 hours) as described ([8]–[10]). The occurrence of synergy was determined with the Bliss Independence model as previously described ([8]–[10]). Bliss Prediction curves indicated the predicted percentage viability of the cells when exposed to the combination of compounds if both compounds work additively together. Synergy was visualised as the presence of a lower cell viability upon combination of two compounds compared to the viability predicted based on the presence of an additive effect of the compounds (i.e., the viability curve of the combination runs below the Bliss Prediction curve). […]

KP-MO-TS cells = test: 72-hour resazurin-based cytotoxicity assay, KP-MO-TS; assay type: cell-based, human; conditions: Homo sapiens, CALM-AF10, AML
Description: as §1, §2

PER-485 cells [1] = test: 72-hour resazurin-based cytotoxicity assay, PER-485; assay type: cell-based, human; conditions: Homo sapiens, PER-485, KMT2A-r t(4;11), infant ALL derived
Description: as §1
(§3) The cytotoxicity of drugs was assessed through resazurin-based assays and the inhibitory concentration resulting in 50% reduction of cell survival relative to control (IC50) was calculated as previously described ([7]). In synergy studies, cells were exposed to a dilution series of compounds, as single agents or in combination, in resazurin-based assays (72 hours) as described ([8]–[10]). The occurrence of synergy was determined with the Bliss Independence model as previously described ([8]–[10]). Bliss Prediction curves indicated the predicted percentage viability of the cells when exposed to the combination of compounds if both compounds work additively together. Synergy was visualised as the presence of a lower cell viability upon combination of two compounds compared to the viability predicted based on the presence of an additive effect of the compounds (i.e., the viability curve of the combination runs below the Bliss Prediction curve). The percentage of apoptotic cells was assessed by annexin V and 7-Aminoactinomycin D (7-AAD) (BD Biosciences, Australia) flow cytometry as previously described ([7]).

PER-490 cells = test: 72-hour resazurin-based cytotoxicity assay, PER-490; assay type: cell-based, human; conditions: Homo sapiens, PER-490, KMT2A-r t(4;11), infant ALL
Description: as §1, §2

THP-1 cells = test: 72-hour resazurin-based cytotoxicity assay, THP-1; assay type: cell-based, human; conditions: Homo sapiens, THP-1, KMT2A-r t(9;11), infant AML
Description: as §1, §3

PER-703 cells = test: 72-hour resazurin-based cytotoxicity assay, PER-703; assay type: cell-based, human; conditions: Homo sapiens, PER-703, KMT2A-r t(1;11), infant ALL derived
Description: as §1, §2

PER-785 cells = test: 72-hour resazurin-based cytotoxicity assay, PER-785; assay type: cell-based, human; conditions: Homo sapiens, PER-785, KMT2A-r t(4;11), infant ALL
Description: as §1, §2

PER-826 cells = test: 72-hour resazurin-based cytotoxicity assay, PER-826; assay type: cell-based, human; conditions: Homo sapiens, PER-826, KMT2A-r complex t(11;19), infant ALL
Description: as §1, §2

KOPN-8 cells = test: 72-hour resazurin-based cytotoxicity assay, KOPN-8; design: species or system human; conditions: Homo sapiens, KOPN-8, KMT2A-r t(11;19), infant pre-B cell ALL
Description: as §1, §2

MOLM-13 cells = test: 72-hour resazurin-based cytotoxicity assay, MOLM-13; assay type: cell-based, human; conditions: Homo sapiens, MOLM-13, KMT2A-r t(9;11), AML
Description: as §1, §3

MV4;11 cells = test: 72-hour resazurin-based cytotoxicity assay, MV4;11; assay type: cell-based, human; conditions: Homo sapiens, MV4;11, KMT2A-r t(4;11), childhood AML
Description: as §1, §2

SEMK2 cells = test: 72-hour resazurin-based cytotoxicity assay, SEMK2; design: species or system human; conditions: Homo sapiens, SEMK2, KMT2A-r t(4;11), pre-B cell childhood ALL
Description: as §1, §3

RS4;11 cells = test: 72-hour resazurin-based cytotoxicity assay, RS4;11; design: species or system human; conditions: RS4;11, KMT2A-r t(4;11), pre-B cell ALL
Description: as §1, §3

CEM cells = test: 72-hour resazurin-based cytotoxicity assay, CEM; design: species or system human; conditions: Homo sapiens, CCRF-CEM, KMT2A-wt, childhood T-cell ALL
Description: as §1, §3

REH cells = test: 72-hour resazurin-based cytotoxicity assay, REH; design: species or system human; conditions: Homo sapiens, KMT2A-wt, pre-B cell ALL
Description: as §1, §3

Jurkat cells = test: 72-hour resazurin-based cytotoxicity assay, Jurkat; design: species or system human; conditions: Homo sapiens, KMT2A-wt, childhood T-cell ALL
Description: as §1, §3

KELLY cells = test: 72-hour resazurin-based cytotoxicity assay, KELLY; assay type: cell-based, human; conditions: Homo sapiens, neuroblastoma
Description: as §1, §2

BE(2)C cells = test: 72-hour resazurin-based cytotoxicity assay, BE(2)C; assay type: cell-based, human; conditions: Homo sapiens, childhood neuroblastoma
Description: as §1, §2

HEY cells = test: 72-hour resazurin-based cytotoxicity assay, HEY; assay type: cell-based, human; conditions: Homo sapiens, ovarian carcinoma
Description: as §1, §2

27/87 cells = test: 72-hour resazurin-based cytotoxicity assay, 27/87; assay type: cell-based, human; conditions: Homo sapiens, 27/87, endometrioid ovarian cancer
Description: as §1, §2

MCF-7 cells = test: 72-hour resazurin-based cytotoxicity assay, MCF-7; assay type: cell-based, human; conditions: Homo sapiens, MCF7, MCF-7, breast adenocarcinoma
Description: as §1, §2

H460 cells = test: 72-hour resazurin-based cytotoxicity assay, H460; assay type: cell-based, human; conditions: Homo sapiens, NCI-H460, H460, lung carcinoma
Description: as §1, §2

LNCaP cells = test: 72-hour resazurin-based cytotoxicity assay, LNCaP; assay type: cell-based, human; conditions: Homo sapiens, prostate carcinoma
Description: as §1, §2

MRC-5 cells = test: 72-hour resazurin-based cytotoxicity assay, MRC-5; assay type: cell-based, human; conditions: Homo sapiens, MRC5, MRC-5, non-malignant, normal lung
Description: as §1, §3

WI-38 cells = test: 72-hour resazurin-based cytotoxicity assay, WI-38; assay type: cell-based, human; conditions: Homo sapiens, WI-38, non-malignant, normal lung
Description: as §1, §2

[2] = system: peripheral blood mononuclear cells from healthy donors; test: 72-hour resazurin-based viability assay, PBMC from healthy donors; assay type: cell-based, human; conditions: Homo sapiens, PBMC, 72 h, 72 h resazurin
Description: as §1, §3

[3] = system: KMT2A-r and CALM-AF10 translocated leukemia cell lines; test: Cytotoxicity in expanded cell line panel (range over sensitive lines); assay type: cell-based; conditions: Homo sapiens; 9 out of 11 KMT2A-r leukemia cell lines
Description: as §1, §2

PER-485 cells [4] = test: Annexin V/7-AAD flow cytometry, PER-485; assay type: cell-based, human; conditions: KMT2A-r leukemia cells (PER-485)
Description: as §3

[5] = system: THP-1 and REH versus 2-Cl-ATP-sensitive KMT2A-r cells; test: Resazurin-based viability assays of nucleoside analogs in leukemia cell line panel; design: species or system human
Description: as §3

Nc1nc(Cl)nc2c1ncn2[C@@H]1O[C@H](COP(=O)(O)OP(=O)(O)OP(=O)(O)O)[C@@H](O)[C@H]1O [2-Cl-ATP, 2-chloroadenosine triphosphate]
IC50 (U937 cells): 3.5 µM | IC50 (KP-MO-TS cells): 4.4 µM | IC50 (PER-485 cells [1]): 2.5 µM | IC50 (PER-490 cells): 4.5 µM | IC50 (THP-1 cells): > 20 µM | IC50 (PER-703 cells): 4.3 µM | IC50 (PER-785 cells): 3.5 µM | IC50 (PER-826 cells): 2.6 µM | IC50 (KOPN-8 cells): 13.4 µM | IC50 (MOLM-13 cells): 5.6 µM | IC50 (MV4;11 cells): 2.7 µM | IC50 (SEMK2 cells): 5.1 µM | IC50 (RS4;11 cells; Homo sapiens, RS4-11, 72 h): 5.8 µM | IC50 (RS4;11 cells): 5.9 µM | IC50 (CEM cells): 11.4 µM | IC50 (REH cells): > 20 µM | IC50 (Jurkat cells): > 20 µM | IC50 (KELLY cells): > 20 µM | IC50 (BE(2)C cells): > 20 µM | IC50 (HEY cells): > 20 µM | IC50 (27/87 cells): > 20 µM | IC50 (MCF-7 cells): > 20 µM | IC50 (H460 cells): > 20 µM | IC50 (LNCaP cells): 14.9 µM | IC50 (MRC-5 cells): > 20 µM | IC50 (WI-38 cells): > 20 µM | IC50 ([2]; Donor 1): 5.4 µM | IC50 ([2]; Donor 2): 4.8 µM | IC50 ([2]; Donor 3): 4.2 µM | IC50 [3]: 2.5 to 5.9 µM | induction of apoptosis (annexin V/7AAD) (PER-485 cells [4]): inducing apoptosis

Nc1nc(Cl)nc2c1ncn2[C@H]1C[C@H](O)[C@@H](CO)O1 [cladribine]
response of 2-Cl-ATP-resistant cell lines THP-1 and REH compared with 2-Cl-ATP-sensitive KMT2A-r cells [5]: less responsive

CN(C(=O)CN(CCO)CC(=O)N(C)C(C)(C)Cc1ccccc1)C(C)(C)Cc1ccccc1 [Oxethazaine, oxethazaine]
IC50 (PER-485 cells [1]): 3.6 µM | IC50 (THP-1 cells): 15 µM | IC50 (MOLM-13 cells): 3.8 µM | IC50 (SEMK2 cells): 8.9 µM | IC50 (RS4;11 cells; Homo sapiens, RS4-11, 72 h): 9 µM | IC50 (CEM cells): 10.6 µM | IC50 (REH cells): 4.9 µM | IC50 (Jurkat cells): 18.9 µM | IC50 (MRC-5 cells): > 20 µM

Nc1nc(Cl)nc2c1ncn2[C@@H]1O[C@H](CO)[C@@H](O)[C@H]1O [2-CADO, 2-chloroadenosine]
response of 2-Cl-ATP-resistant cell lines THP-1 and REH compared with 2-Cl-ATP-sensitive KMT2A-r cells [5]: less responsive
